Key:
[1] = Association constant from fluorescence titration data, Scatchard plot method; format: binding
Procedure: (§1) For ion interaction experiments, an aqueous solution of guanylated fluorophore (A) (10 µM) was titrated with different salt solutions (CaCl2, KCI, NaCl, NaCH3COO, KSCN, Na2CO3, Na2SO3, SDS, Na2HPO4, Na3PO4, AgNO3, MgSO4, CuSO4, and NiSO4). Different concentrations of ions were tested from 0 to 100 µM and steady-state fluorescence (SSF) spectra were acquired. All measurements were performed using 10 mm quartz cuvette (Hellma Analytics).
Chem. Commun. (Cambridge, United Kingdom) 2003, 2 (6), 792-793. https://doi.org/10.1039/b300098b)by the following equation (i): [SO4^(2−)] = (1)/(nKa)(1)/([F]0^(n−1))(1−α)/(α^n) [formula] where; α is defined as the ratio between concentration of free fluorophore (e.g. [F] and initial [F]0 fluorophore concentration, e.g. for the guanylated fluorophore (A), and can be determined from the fluorescence difference at any titration stage; n is the stoichiometry to the studied complex Fn(SO4^2-)m.
The data of figure 5d of example 3 was fitted to equation (i) as shown in: • Figure 7a for the 1:1 complex of guanylated fluorophore (A) and sulfate anion (i.e., (A)(SO4^2-), complex A) • Figure 7b for the a 2:1 complex of guanylated fluorophore (A) and sulfate anion (i.e., (A)2(SO4^2-), complex B)

[2] = pH titration of aqueous solution, UV-Vis absorption and steady-state fluorescence (pH dependence, pKa); format: physicochemical
Procedure: For experiments in water, stock solutions (1 mM) of guanylated fluorophore (A) in ethanol were used. All aqueous solutions were prepared by diluting the stock solution in Milli-Q water to the desired concentration and filtered with 0.22 µm filters before use. For the pH titration experiments, aqueous solutions of guanylated fluorophore (A) (10 µM) were titrated by the successive addition of small volumes (in the order of microliters) of HCI and NaOH solutions of different concentrations (0.01-10 M) to an initial volume of 25 mL to minimize changes in the sample volume. UV-Vis absorption, SSF spectra were recorded.
UV-Vis absorption spectra of guanylated fluorophore (A) were recorded at room temperature using a Cary 100 (Varian) spectrophotometer using a slit width of 0.4 nm and a scan rate of 600 nm/min.
(§2) Steady-state fluorescence (SSF) spectra of the samples were recorded employing an FLS920 (Edinburgh Instruments) spectrofluorometer equipped with a MCP-PMT (microchannel plate-photomultiplier tube) detector (R3809 model) and a TCSPC (time-correlated single photon counting) data acquisition card (TCC900 model). A TLC 50 temperature-controlled cuvette holder (Quantum Northwest) was employed for the measurements (temperature was controlled at 296 K, which corresponds to 22.85 °C). A Xe lamp of 450 W was used as the light source for SSF spectra. […]

[3] = Ion recognition: fluorescence change on addition of salts in water
Procedure: […] Different concentrations of ions were tested from 0 to 100 µM and steady-state fluorescence (SSF) spectra were acquired. All measurements were performed using 10 mm quartz cuvette (Hellma Analytics).
as §2
Although the fluorescence intensity of guanylated fluorophore (A) was the same for most of the ions, the presence of sulfate anions (added to a concentration of 100 µM) caused -2-fold fluorescence quenching in guanylated fluorophore (A) (at a concentration of 10 µM) (Figure 5a). […] More importantly, for the same titration a gradual fluorescence decrease without any shift in the emission spectra was observed (see Figure 5c).
Figure 6b collects the fluorescence changes (%) of guanylated fluorophore (A) when successive quantities of 100 µM of anions are added over 5µM solution of A in water.

[4] = Anion selectivity, fluorescence decrease on addition of anion in water (Figure 6a); conditions: 100 µM anion
Procedure: as §1
The selectivity of guanylated fluorophore (A) was tested with different anions (Figure 6a). […] It is important to emphasize that the selectivity of guanylated fluorophore (A) was tested in water, where the presence of cations like Ca^2+, Ni^2+, K^+, Na^+ or Mg^2+ or anions like HPO4^2- NO^3- and Cl^- normally presented in this media will not affect the final recognition values. To evaluate the selectivity to sulfate anions, additional experiments were conducted on water complex samples containing high concentrations of such ions as interfering.

pKa ([2]; aqueous solution (Milli-Q water), water, from absorption spectra at different pH (A / AH^+ equilibrium)): 11.1 | intensity of the fluorescence and the wavelength of emission ([2]; pH in the range of 5-12, λex 272 nm): only mildly affected
SMILES: CC(C)NC(=Nc1ccc2c(c1)Cc1ccccc1-2)NC(C)C [guanylated fluorophore (A), 2-(9H-fluoren-2-yl)-1,3-diisopropylguanidine]
Ka ([1]; 1:1 complex (A)(SO4^2-), complex A): 1.26x10^5 | Ka ([1]; 2:1 complex (A)2(SO4^2-), complex B): 1.55x10^10 | fluorescence changes (%) / emission intensity ([3]; successive additions of 100 µM of anions to 5 µM solution in water (Figure 6b)): exclusively decreases when sulfate anions are added | fluorescence quenching ([3]; sulfate anions 100 µM, fluorophore 10 µM, water): -2 fold | sensitivity ([4]; HPO4^2-): no sensitivity was found | sensitivity ([4]; PO4^3-): no sensitivity was found | sensitivity ([4]; SO3^2-): sensitivity was not observed | sensitivity ([4]; dodecyl sulfate (SDS)): sensitivity was not observed
